Assay results taken from US8518912B2, “Phosphonic acid derivates and their use as P2Y12 receptor antagonists” (Actelion Pharmaceuticals Ltd., priority 2008, dated 2013).

How the values were obtained:
[1] = system: ADP induced platelet aggregation; assay: Light transmission platelet aggregation assay; type: cell-based; conditions: human platelet-rich plasma; ADP at 1-5 μM final concentration; 2 minutes preincubation at 37° C.
Experimental: After obtaining informed consent, blood was obtained by vein puncture from healthy volunteers using a thrombin inhibitor as the anticoagulant. Platelet-rich plasma (PRP) was removed after centrifugation at 20° C. for 10 minutes at 200 g and allowed to equilibrate at 37° C. Part of the blood was centrifuged for 10 minutes at 5000 g to yield platelet poor plasma (PPP).
Light transmission platelet aggregation was carried out according to the method of Born & Cross (G. V. R. Born and M. J. Cross, J. Physiol. (1963), 168, 178-195) using a Chronolog lumiaggregometer with stirring (1000 rpm) at 37° C. PRP was placed into the cuvette and allowed to equilibrate at 37° C. for two minutes. In a first phase, the ADP concentration to give optimal extent of aggregation was determined for the PRP of each donor. In a second phase, PRP was incubated with inhibitors for 2 minutes at 37° C. prior to the addition of the agonist ADP at 1-5 μM final concentration. The change in light transmission, indicative of ongoing aggregation, was monitored during 5 minutes. The extent of platelet aggregation was calculated relative to light absorbance of PRP (not aggregated) and PPP (full aggregation).

human P2Y12 receptor = biological target: T1, human P2Y12 receptor (Homo sapiens, UniProt Q9H244); assay: P2Y12 receptor binding assay; conditions: CHO cells with recombinant human P2Y12 receptor; tritium-labeled 2-methyl-S-ADP; 2 hours at RT
T1 construct: expressed in transfected cells; host or cells: Chinese Hamster Ovary (CHO) cells
T1 sequence (Q9H244 whole entry): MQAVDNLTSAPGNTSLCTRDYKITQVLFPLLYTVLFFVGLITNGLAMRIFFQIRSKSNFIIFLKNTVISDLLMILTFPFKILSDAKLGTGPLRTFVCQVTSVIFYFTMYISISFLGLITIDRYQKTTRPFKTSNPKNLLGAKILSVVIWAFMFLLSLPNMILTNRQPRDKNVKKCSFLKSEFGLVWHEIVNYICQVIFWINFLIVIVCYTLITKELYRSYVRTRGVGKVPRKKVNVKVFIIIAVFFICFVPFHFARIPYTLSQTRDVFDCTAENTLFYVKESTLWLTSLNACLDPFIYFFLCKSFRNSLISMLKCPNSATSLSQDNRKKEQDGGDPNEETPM
Experimental: Chinese Hamster Ovary (CHO) cells with recombinant expression of the human P2Y12 receptor were cultured in 24 well cell-culture plates. Cells were washed three times with binding buffer (50 mM Tris pH 7.4, 100 mM NaCl, […], 0.5% BSA). The cells were then incubated with 0.5 ml per well binding buffer containing tritium-labeled 2-methyl-thio-adenosine 5′-diphosphate (2-methyl-S-ADP) (between 100,000 and 300,000 dpm per well) and various concentrations of test compounds. After incubation at RT for 2 hours, cells were washed three times with binding buffer. Then, cells were solubilized by addition of 0.5 ml solubilization buffer (SDS, NaOH, EDTA). The content of each well was then transferred into beta-counter vials and 2.0 ml of Ultima Gold Scintillation liquid was added.

IC50 [1]	IC50 (human P2Y12 receptor)	SMILES
0.01 µM	–	CCOC(=O)N1CCN(C(=O)[C@H](CP(=O)(O)O)NC(=O)c2cc(N3CC[C@H](OC)C3)nc(-c3ccccc3)n2)CC1 [Example 1, 4-((R)-2-{[6-((S)-3-methoxy-pyrrolidin-1-yl)-2-phenyl-pyrimidine-4-carbonyl]-amino}-3-phosphono-propionyl)-piperazine-1-carboxylic acid ethyl ester]
0.008 µM	–	CCCCOC(=O)N1CCN(C(=O)[C@H](CP(=O)(O)O)NC(=O)c2cc(N3CC[C@H](OC)C3)nc(-c3ccccc3)n2)CC1 [Example 2, 4-((R)-2-{[6-((S)-3-methoxy-pyrrolidin-1-yl)-2-phenyl-pyrimidine-4-carbonyl]-amino}-3-phosphono-propionyl)-piperazine-1-carboxylic acid butyl ester]
0.021 µM	–	CCOC(=O)N1CCN(C(=O)[C@H](CCP(=O)(O)O)NC(=O)c2cc(N3CC[C@H](OC)C3)nc(-c3ccccc3)n2)CC1 [Example 4, 4-((S)-2-{[6-((S)-3-methoxy-pyrrolidin-1-yl)-2-phenyl-pyrimidine-4-carbonyl]-amino}-4-phosphono-butyryl)-piperazine-1-carboxylic acid ethyl ester]
0.001 µM	–	CCCCOC(=O)N1CCN(C(=O)[C@H](CCP(=O)(O)O)NC(=O)c2cc(N3CC[C@H](OC)C3)nc(-c3ccccc3)n2)CC1 [Example 5, 4-((S)-2-{[6-((S)-3-methoxy-pyrrolidin-1-yl)-2-phenyl-pyrimidine-4-carbonyl]-amino}-4-phosphono-butyryl)-piperazine-1-carboxylic acid butyl ester]
0.004 µM	–	CCOC(=O)N1CCN(C(=O)[C@H](Cc2ccc(P(=O)(O)O)cc2)NC(=O)c2cc(N3CC[C@H](OC)C3)nc(-c3ccccc3)n2)CC1 [Example 59, 4-[(S)-2-{[6-((S)-3-Methoxy-pyrrolidin-1-yl)-2-phenyl-pyrimidine-4-carbonyl]-amino}-3-(4-phosphono-phenyl)-propionyl]-piperazine-1-carboxylic acid ethyl ester]
–	0.0035 µM	CCCCOC(=O)N1CCN(C(=O)[C@H](CP(=O)(OCOC(=O)OC)OCOC(=O)OC)NC(=O)c2cc(N3CC[C@H](OC)C3)nc(-c3ccccc3)n2)CC1 [Example 93, 4-((R)-3-[Bis-(methoxycarbonyloxy-methoxy)-phosphoryl]-2-{[6-((S)-3-methoxy-pyrrolidin-1-yl)-2-phenyl-pyrimidine-4-carbonyl]-amino}-propionyl)-piperazine-1-carboxylic acid butyl ester]
–	0.034 µM	CCCCOC(=O)N1CCN(C(=O)[C@H](CP(=O)(OCOC(=O)OC(C)C)OCOC(=O)OC(C)C)NC(=O)c2cc(N3CC[C@H](OC)C3)nc(-c3ccccc3)n2)CC1 [Example 95, 4-((R)-3-[Bis-(isopropoxycarbonyloxy-methoxy)-phosphoryl]-2-{[6-((S)-3-methoxy-pyrrolidin-1-yl)-2-phenyl-pyrimidine-4-carbonyl]-amino}-propionyl)-piperazine-1-carboxylic acid butyl ester]
–	0.0032 µM	CCCCOC(=O)N1CCN(C(=O)[C@H](CP(=O)(OCc2oc(=O)oc2C)OCc2oc(=O)oc2C)NC(=O)c2cc(N3CC[C@H](OC)C3)nc(-c3ccccc3)n2)CC1 [Example 101, 4-((R)-3-[Bis-(5-methyl-2-oxo-[1,3]dioxol-4-ylmethoxy)-phosphoryl]-2-{[6-((S)-3-methoxy-pyrrolidin-1-yl)-2-phenyl-pyrimidine-4-carbonyl]-amino}-propionyl)-piperazine-1-carboxylic acid butyl ester]
–	0.153 µM	CCCCOC(=O)N1CCN(C(=O)[C@H](CP(=O)(O[C@@H](C)C(=O)OCC)O[C@@H](C)C(=O)OCC)NC(=O)c2cc(N3CC[C@H](OC)C3)nc(-c3ccccc3)n2)CC1 [Example 107, 4-((R)-3-[Bis-((S)-1-ethoxycarbonyl-ethoxy)-phosphoryl]-2-{[6-((S)-3-methoxy-pyrrolidin-1-yl)-2-phenyl-pyrimidine-4-carbonyl]-amino}-propionyl)-piperazine-1-carboxylic acid butyl ester]
–	0.208 µM	CCCCOC(=O)N1CCN(C(=O)[C@H](CP2(=O)OCCCO2)NC(=O)c2cc(N3CC[C@H](OC)C3)nc(-c3ccccc3)n2)CC1 [Example 109, 4-[(R)-2-{[6-((S)-3-Methoxy-pyrrolidin-1-yl)-2-phenyl-pyrimidine-4-carbonyl]-amino}-3-(2-oxo-2λ^5-[1,3,2]dioxaphosphinan-2-yl)-propionyl]piperazine-1-carboxylic acid butyl ester]
–	0.036 µM	CCCC(=O)OCOP(=O)(OCOC(=O)CCC)c1ccc(C[C@H](NC(=O)c2cc(N3CC[C@H](OC)C3)nc(-c3ccccc3)n2)C(=O)N2CCN(C(=O)OCC)CC2)cc1 [Example 124, 4-((S)-3-[4-(Bis-(butyryloxy-methoxy)-phosphoryl)-phenyl]-2-{[6-((S)-3-methoxy-pyrrolidin-1-yl)-2-phenyl-pyrimidine-4-carbonyl]-amino}-propionyl)-piperazine-1-carboxylic acid ethyl ester]
0.021 µM	–	CCCCOC(=O)N1CCN(C(=O)[C@H](CCC(=O)O)NC(=O)c2cc(N3CC[C@H](OC)C3)nc(-c3ccccc3)n2)CC1 [reference compound]
0.032 µM	–	CCOC(=O)N1CCN(C(=O)[C@H](CCC(=O)O)NC(=O)c2cc(N3CC[C@H](OC)C3)nc(-c3ccccc3)n2)CC1 [reference compound]
0.091 µM	–	CCCCOC(=O)N1CCN(C(=O)[C@H](CC(=O)O)NC(=O)c2cc(N3CC[C@H](OC)C3)nc(-c3ccccc3)n2)CC1 [reference compound]
0.226 µM	–	CCOC(=O)N1CCN(C(=O)[C@H](Cc2ccc(C(=O)O)cc2)NC(=O)c2cc(N3CC[C@H](OC)C3)nc(-c3ccccc3)n2)CC1 [reference compound]
0.138 µM	–	CCOC(=O)N1CCN(C(=O)[C@H](CC(=O)O)NC(=O)c2cc(N3CC[C@H](OC)C3)nc(-c3ccccc3)n2)CC1 [reference compound]

SMILES	IC50 [1]	IC50 (human P2Y12 receptor)
CCCCOC(=O)N1CCN(C(=O)[C@H](CP(=O)(N[C@H](C(=O)OC)c2ccccc2)N[C@H](C(=O)OC)c2ccccc2)NC(=O)c2cc(N3CC[C@H](OC)C3)nc(-c3ccccc3)n2)CC1 [Example 88, N,N′-Bis-((S)-1-methoxycarbonyl-1-phenyl-methyl)-2-{(R)-[6-((S)-3-methoxy-pyrrolidin-1-yl)-2-phenyl-pyrimidine-4-carbonyl]-amino}-3-oxo-3-(4-butoxy-carbonyl-piperazin-1-yl)-propyl-phosphonic acid diamide]	–	0.022 µM
CCCCOC(=O)N1CCN(C(=O)[C@H](CP(=O)(N[C@@H](C)C(=O)OC)N[C@@H](C)C(=O)OC)NC(=O)c2cc(N3CC[C@H](OC)C3)nc(-c3ccccc3)n2)CC1 [Example 89, N,N′-Bis-((S)-1-methoxycarbonyl-ethyl)-2-{(R)-[6-((S)-3-methoxy-pyrrolidin-1-yl)-2-phenyl-pyrimidine-4-carbonyl]-amino}-3-oxo-3-(4-butoxy-carbonyl-piperazin-1-yl)-propyl-phosphonic acid diamide]	–	0.162 µM
CCCCOC(=O)N1CCN(C(=O)[C@H](CP(=O)(NC(C)(C)C(=O)OCC)NC(C)(C)C(=O)OCC)NC(=O)c2cc(N3CC[C@H](OC)C3)nc(-c3ccccc3)n2)CC1 [Example 92, N,N′-Bis-(2-ethoxycarbonyl-prop-2-yl)-2-{(R)-[6-((S)-3-methoxy-pyrrolidin-1-yl)-2-phenyl-pyrimidine-4-carbonyl]-amino}-3-oxo-3-(4-butoxy-carbonyl-piperazin-1-yl)-propyl-phosphonic acid diamide]	–	0.042 µM
CCOC(=O)N1CCN(C(=O)[C@H](CP(=O)(OCOC(C)=O)OCOC(C)=O)NC(=O)c2cc(N3CC[C@H](OC)C3)nc(-c3ccccc3)n2)CC1 [Example 120, 4-((R)-3-[Bis-(acetoxy-methoxy)-phosphoryl]-2-{[6-((S)-3-methoxy-pyrrolidin-1-yl)-2-phenyl-pyrimidine-4-carbonyl]-amino}-propionyl)-piperazine-1-carboxylic acid ethyl ester]	–	0.007 µM
